Read-outs that look alike come from different tables or passages of the source.

In this data set the test system is primary hepatocytes isolated from rats. In words: Hepatocyte protective effect against substances deriving hepatocyte toxicity (WST-1 viability). The data set is classed as cell-based. Particulars: for EC50: Rattus norvegicus, Hepatocyte, 24-48 h. As for the experimental part: Various endogenous/exogenous attacks on the cells trigger the mechanisms of cell death which is broadly classified into two types, i.e. apoptosis or necrosis. Using these cell death mechanisms, in the present experimental example, primary hepatocytes isolated from rats were treated with drugs which were clinically shown to result in serious side-effects of hepatocyte toxicity or various chemicals which derive cell death, and the compounds synthesized in the Examples were estimated for their hepatocyte protective effects, after 24-48 h. The substances used to derive hepatocyte death include CCl4, ActD, H2O2, doxorubicin, anti-Fas Ab/Actinomycin D, acetaminophen, EtOH, CdCl2, palmitate, stearate, cyclophosphamide, terfenadine, diclofenac, simvastatin, and adefovir. Primary hepatocytes were isolated using the method of Seglen PO (Experimental Cell Research 74 (1972) pp 450-454). Briefly, hepatocytes were isolated according to the two-step collagenase perfusion method, and dead cells were removed by low speed (500 rpm) centrifugation for 10 min using percoll gradient (Kreamer B L etc, In Vitro Cellular & Developmental Biology 22 (1986) pp 201-211). During this step, the viability of cells was maintained 90% or above. The cells were suspended in HepatoZYME media (Gibco BRL), and the number of cells was counted. 1.5×10^4 cells in 100 μl were placed into the collagen-coated 96-well plate (BD biocoat), and adhered on the bottom for 3-4 h.
In order to assess the hepatocyte protective effect, above adhered cells were pretreated with the Example compounds for 30 min. At this time, the concentration of the Example compounds were serially diluted by 2-fold or 3-fold over 5 steps starting from 30 uM, 10 uM or 1 uM depending on the experiments, and the final concentration of DMSO was adjusted to 0.2%. 30 min after the treatment by compounds, cells were treated by the substances deriving hepatocyte death or hepatotoxic drugs at the concentrations indicated in Table 1. After 24-48 h, the viability of cells was determined to estimate the hepatocyte protective effects. The viability of cells was determined using WST-1 (MK-400, […]) method by the absorbance at 440 nm. Hepatocyte protective effects of the Example compounds were represented by “EC50,” which was calculated from measured values. “EC50” herein means the concentration of the compound at which 50% of maximum protective effect is observed in the experiment.

[1] abbreviates: doxorubicin, read-out: EC50, cell protective effects against doxorubicin in hepatocytes.

For `c1ccc(-c2cc3cccc(NC4CCOCC4)c3[nH]2)nc1` [Example 8, (Tetrahydropyran-4-yl)-[2-(pyridin-2-yl)-1H-indol-7-yl]-amine], the EC50 under setting [1] is 2500 nM.
Consider `Cc1cc(NC2CCOCC2)c2[nH]c(-c3ccccc3)cc2c1` [Example 41, (Tetrahydropyran-4-yl)-(5-methyl-2-phenyl-1H-indol-7-yl)-amine], for which the EC50 runs as follows: (Actinomycin D 100 ng/mL, read-out: EC50, protective effect against the substances deriving hepatotoxicity) 170 nM; (Anti-Fas Ab 1 ug/mL / Actinomycin D 5 ng/mL, read-out: EC50, protective effect against the substances deriving hepatotoxicity) under 600 nM; (CCl4 10 mM, read-out: EC50, protective effect against the substances deriving hepatotoxicity) 800 nM; (CdCl2 1 uM, read-out: EC50, protective effect against the substances deriving hepatotoxicity) 1900 nM; (Cyclophosphamide 3 mM, read-out: EC50, protective effect against the substances deriving hepatotoxicity) under 200 nM; (Doxorubicin 5 uM, read-out: EC50, protective effect against the substances deriving hepatotoxicity) 60 nM. The EC50 runs as follows: (EtOH 2.5%, read-out: EC50, protective effect against the substances deriving hepatotoxicity) 9000 nM; (H2O2 10 mM, read-out: EC50, protective effect against the substances deriving hepatotoxicity) 800 nM; (Palmitic acid 700 uM, read-out: EC50, protective effect against the substances deriving hepatotoxicity) under 600 nM; (Stearic acid 700 uM, read-out: EC50, protective effect against the substances deriving hepatotoxicity) under 600 nM; under setting [1], 60 nM. In addition, the “viability at 3-100 uM” value (Tacrine 0.5 mM, compound at 3-100 uM, rat primary hepatocytes) is 50%.
With `CC(=O)Nc1ccc(-c2cc3cc(N4CCS(=O)(=O)CC4)cc(NC4CCOCC4)c3[nH]2)cc1` [Example 89, (Tetrahydropyran-4-yl)-{5-(1,1-dioxo-thiomorpholin-4-yl)-2-[4-(acetyl)aminophenyl]-1H-indol-7-yl}-amine], the EC50 under setting [1] turned out to be 300 nM.
Same read-out and setting: the same measure for `O=C(O)CNc1cc(Oc2ccccc2)cc2cc(-c3ccccc3)[nH]c12` [Example 109, 2-[(5-Phenoxy-2-phenyl-1H-indol-7-yl)amino]-acetic acid]: 257 nM.
Consider `O=C(O)c1cc(NC2CCCC2)c2[nH]c(-c3ccccc3)cc2c1` [Example 30, 7-(Cyclopentyl)amino-2-phenyl-1H-indole-5-carboxylic acid], for which the EC50 under setting [1] was found to be 140 nM.
The same measure, in the same setting: the same measure for `O=C(O)c1cccc(-c2cc3cc(Cl)cc(NC4CCCC4)c3[nH]2)c1` [Example 124, 3-(7-Cyclopentylamino-5-chloro-1H-indol-2-yl)-benzoic acid]: 150 nM; for `Clc1cc(NC2CCCC2)c2[nH]c(-c3ccccc3)cc2c1` [Example 46, Cyclopentyl-(5-chloro-2-phenyl-1H-indol-7-yl)-amine]: 50 nM; for `COC(=O)c1ccc(-c2cc3cc(Cl)cc(NC4CCCC4)c3[nH]2)cc1` [Example 142, 4-(5-Chloro-7-cyclopentylamino-1H-indol-2-yl)benzoic acid methyl ester]: 50 nM.
Same read-out and setting: the same measure for `OCc1ccccc1-c1cc2cc(Cl)cc(NC3CCCC3)c2[nH]1` [Example 133, [2-(5-Chloro-7-cyclopentylamino-1H-indol-2-yl)-phenyl]-methanol]: 150 nM; for `Clc1cc(NC2CCCC2)c2[nH]c(-c3ccccc3)c(CN3CCOCC3)c2c1` [Example 67, Cyclopentyl-(5-chloro-3-(morpholin-4-yl)methyl-2-phenyl-1H-indol-7-yl)-amine]: under 130 nM; for `CCOc1cc(NC2CCCC2)c2[nH]c(-c3ccccn3)cc2c1` [Example 10, Cyclopentyl-[5-ethoxy-2-(pyridin-2-yl)-1H-indol-7-yl]-amine]: 200 nM.
With `O=C(O)Cc1ccc(-c2cc3cc(Cl)cc(NCC4CCOCC4)c3[nH]2)cc1` [Example 139, 2-{4-[5-Chloro-7-(tetrahydropyran-4-ylmethyl)amino-1H-indol-2-yl]phenyl}-acetic acid], the EC50 under setting [1] worked out at 330 nM.
Same read-out and setting: the same measure for `Cc1cc(N(C)C2CCCC2)c2[nH]c(-c3ccccn3)cc2c1` [Example 27, Cyclopentyl-methyl-[5-methyl-2-(pyridin-2-yl)-1H-indol-7-yl]-amine]: 2400 nM; for `O=C(O)Cc1cccc(-c2cc3cc(Cl)cc(NCC4CCOCC4)c3[nH]2)c1` [Example 127, 2-{3-[5-Chloro-7-(tetrahydropyran-4-ylmethyl)amino-1H-indol-2-yl]-phenyl}-acetic acid]: 590 nM; for `OCCc1cc(NC2CCCC2)c2[nH]c(-c3ccccc3)cc2c1` [Example 32, 2-[7-(Cyclopentylamino)-2-phenyl-1H-indol-5-yl]ethanol]: 130 nM.
Turning to `Cc1cc(NC2CCCC2)c2[nH]c(-c3cnccn3)cc2c1` [Example 6, Cyclopentyl-[5-methyl-2-(pyrazin-2-yl)-1H-indol-7-yl]-amine], the EC50 under setting [1] stood at 300 nM.
With `Cc1cc(NC2CCN(C(=O)CO)CC2)c2[nH]c(-c3ccccc3)cc2c1` [Example 92, 2-Hydroxy-1-[4-(5-methyl-2-phenyl-1H-indol-7-yl)amino-piperidin-1-yl]-ethanone], the EC50 under setting [1] came to 36 nM.
The same measure, in the same setting: the same measure for `O=C(O)Cc1cccc(-c2cc3cc(Cl)cc(NC4CCOCC4)c3[nH]2)c1` [Example 129, 2-{3-[5-Chloro-7-(tetrahydropyran-4-yl)amino-1H-indol-2-yl]-phenyl}-acetic acid]: 1160 nM; for `OCc1cccc(-c2cc3cc(Cl)cc(NC4CCOCC4)c3[nH]2)c1` [Example 126, {3-[5-Chloro-7-(tetrahydropyran-4-yl)amino-1H-indol-2-yl]-phenyl}-methanol]: 200 nM.
Still for that read-out and setting: the same measure for `Cc1cc(NC2CCN(Cc3ccccc3)C2)c2[nH]c(-c3ccccn3)cc2c1` (stereo not drawn) [Example 14, (1-Benzylpyrrolidin-3-yl)[5-methyl-2-(pyridin-2-yl)-1H-indol-7-yl]-amine]: 300 nM; for `OCCN1CCC(Nc2cc(F)cc3cc(-c4ccccc4)[nH]c23)CC1` [Example 60, 2-[4-[(5-Fluoro-2-phenyl-1H-indol-7-yl)amino]piperidin-1-yl]ethanol]: 170 nM; for `O=C(O)c1ccccc1-c1cc2cc(Cl)cc(NC3CCCC3)c2[nH]1` [Example 134, 2-(5-Chloro-7-cyclopentylamino-1H-indol-2-yl)-benzoic acid]: over 1000 nM.
On the same count and under the same terms, the same measure for `c1ccc(Oc2cc(NC3CCCC3)c3[nH]c(-c4ccccn4)cc3c2)cc1` [Example 9, Cyclopentyl-[5-phenoxy-2-(pyridin-2-yl)-1H-indol-7-yl]-amine]: 200 nM; for `CC(=O)Nc1ccc(-c2cc3cc(CN4CCS(=O)(=O)CC4)cc(NC4CCCC4)c3[nH]2)cc1` [Example 85, Cyclopentyl-{5-(1,1-dioxo-thiomorpholin-4-yl)methyl-2-[4-(acetyl)aminophenyl]-1H-indol-7-yl}-amine]: 360 nM; for `O=S1(=O)CCN(Cc2cc(N(CC3CCOCC3)CC3CCOCC3)c3[nH]c(-c4ccccc4)cc3c2)CC1` [Example 57, Di(tetrahydropyran-4-ylmethyl)-[2-phenyl-5-(1,1-dioxo-thiomorpholin-4-yl)methyl-1H-indol-7-yl]amine]: 270 nM.
Regarding `O=C(O)Cc1ccc(-c2cc3cc(Cl)cc(NC4CCOCC4)c3[nH]2)cc1` [Example 141, 2-{4-[5-Chloro-7-(tetrahydropyran-4-yl)amino-1H-indol-2-yl]phenyl}-acetic acid], the EC50 under setting [1] is 460 nM.
Still for that read-out and setting: the same measure for `COC(=O)Cc1cccc(-c2cc3cc(Cl)cc(NC4CCCC4)c3[nH]2)c1` [Example 131, 2-[3-(5-Chloro-7-cyclopentylamino-1H-indol-2-yl)-phenyl]-acetic acid methyl ester]: 360 nM; for `O=C(O)C1CCC(Nc2cc(Cl)cc3cc(-c4ccccc4)[nH]c23)CC1` (stereo not drawn) [Example 102, 4-(5-Chloro-2-phenyl-1H-indol-7-yl)amino-cyclohexane-1-carboxylic acid]: 300 nM.
Still for that read-out and setting: the same measure for `CN(C)CC(=O)N1CCC(Nc2cc(Cl)cc3cc(-c4ccccc4)[nH]c23)CC1` [Example 95, 1-[4-(5-Chloro-2-phenyl-1H-indol-7-yl)amino-piperidin-1-yl]-2-dimethylamino-ethanone]: 210 nM.
Still for that read-out and setting: the same measure for `Clc1cc(NC2CCCC2)c2[nH]cc(-c3ccccc3)c2c1` [Example 80, Cyclopentyl-(5-chloro-3-phenyl-1H-indol-7-yl)-amine]: 100 nM; for `CC(Nc1cc(Cl)cc2cc(-c3ccccc3)[nH]c12)C(=O)O` (stereo not drawn) [Example 112, 2-(5-Chloro-2-phenyl-1H-indol-7-yl)amino-propionic acid]: 450 nM.
